28 compounds from patent US20240018145A1, “[…]-DEPENDENT EN[…] TREATING OR […]” (priority 2020, published 2024) can be followed below.

This experiment relates to FLU A (PR/8/34). As to the kind of experiment: Flu A Neuraminidase Antiviral Assay. Type of experiment: cell-based.

Read-outs that look alike come from different tables or passages of the source.

By EC50 is commonly meant the concentration at which the effect is half-maximal. A low value points to a more potent agent.

Consider `CN1C(=O)c2c(O)c(=O)ccn2N2C(c3ccccc3)C(C3CC3(F)F)CCC12` (single isomer, unassigned) [Compound 105B, 2-(2,2-difluorocyclopropyl)-7-hydroxy-5-methyl-1-phenyl-1,2,3,4,4a,5-hexahydrodipyrido[1,2-b:2′,1′-f][1,2,4]triazine-6,8-dione], for which the EC50 was > 810 nM.

`CN1C(=O)c2c(O)c(=O)ccn2N2C1CCCC2(C)c1ccccc1Cl` (single isomer, unassigned) [Compound 20A, 1-(2-chlorophenyl)-7-hydroxy-1,5-dimethyl-1,2,3,4,4a,5-hexahydrodipyrido[1,2-b:2′,1′-f][1,2,4]triazine-6,8-dione]: the EC50 is 564 nM.

As for `CCC1(c2ccccc2)CCC2N(C)C(=O)c3c(O)c(=O)ccn3N21` (single isomer, unassigned) [Compound 62C, 1-ethyl-6-hydroxy-4-methyl-1-phenyl-2,3,3a,4-tetrahydro-1H-pyrido[2,1-f]pyrrolo[1,2-b][1,2,4]triazine-5,7-dione], a half-maximal response (EC50) required 7490 nM.

In the case of `CN1C(=O)c2c(O)c(=O)ccn2N2C(c3ccccc3)CCC12` (single isomer, unassigned) [Compound 60A, 6-hydroxy-4-methyl-1-phenyl-2,3,3a,4-tetrahydro-1H-pyrido[2,1-f]pyrrolo[1,2-b][1,2,4]triazine-5,7-dione], for the setting “MDCK, 48 h”, the EC50 is > 8100 nM.

`CN1C(=O)c2c(O)c(=O)ccn2N2C(c3ccccc3F)C(CC(F)(F)F)CCC12` (single isomer, unassigned) [Compound 127A, 1-(2-fluorophenyl)-7-hydroxy-5-methyl-2-(2,2,2-trifluoroethyl)-1,2,3,4,4a,5-hexahydrodipyrido[1,2-b:2′,1′-f][1,2,4]triazine-6,8-dione] had an EC50 of 3500 nM. This counts as single-digit micromolar.

For the compound `CN1C(=O)c2c(O)c(=O)ccn2N2C(c3ccccc3)C(CC(F)(F)F)CCC12` (single isomer, unassigned) [Compound 118B, 7-hydroxy-5-methyl-1-phenyl-2-(2,2,2-trifluoroethyl)-1,2,3,4,4a,5-hexahydrodipyrido[1,2-b:2′,1′-f][1,2,4]triazine-6,8-dione], the EC50 is 3.1 nM.

In turn, `CN1C(=O)c2c(O)c(=O)ccn2N2C1CCCC2(C)c1ccccc1Cl` (single isomer, unassigned) [Compound 20B, 1-(2-chlorophenyl)-7-hydroxy-1,5-dimethyl-1,2,3,4,4a,5-hexahydrodipyrido[1,2-b:2′,1′-f][1,2,4]triazine-6,8-dione] had a 50% effective concentration (EC50) of 4.6 nM.

`CC1CCC2N(C)C(=O)c3c(O)c(=O)ccn3N2C1(C)c1ccccc1` (single isomer, unassigned) [Compound 29A, 7-hydroxy-1,2,5-trimethyl-1-phenyl-1,2,3,4,4a,5-hexahydrodipyrido[1,2-b:2′,1′-f][1,2,4]triazine-6,8-dione] registered an EC50 of 1860 nM.

With `CN1C(=O)c2c(O)c(=O)ccn2N2C1CCC1(CCC(C(F)(F)F)CC1)C2c1ccccc1` (single isomer, unassigned) [Compound 73B, 7′-hydroxy-5′-methyl-1′-phenyl-4-(trifluoromethyl)-3′,4′,4a′,5′-tetrahydro-1′H-spiro[cyclohexane-1,2′-dipyrido[1,2-b:2′,1′-f][1,2,4]triazine]-6′,8′-dione], the EC50 was > 810 nM.

Compound `CN1C(=O)c2c(O)c(=O)ccn2N2C1CCCC2(C)c1ncccc1F` (single isomer, unassigned) [Compound 27B, 1-(3-fluoropyridin-2-yl)-7-hydroxy-1,5-dimethyl-1,2,3,4,4a,5-hexahydrodipyrido[1,2-b:2′,1′-f][1,2,4]triazine-6,8-dione] displayed an EC50 of 17.1 nM.

On to `O=C1c2c(O)c(=O)ccn2N2C(c3ccccc3)C(CCC(F)(F)F)CCC2N1CC1CC1` (single isomer, unassigned) [Compound 100B, 5-(cyclopropylmethyl)-7-hydroxy-1-phenyl-2-(3,3,3-trifluoropropyl)-1,2,3,4,4a,5-hexahydrodipyrido[1,2-b:2′,1′-f][1,2,4]triazine-6,8-dione], for which it took 5.4 nM to reach a half-maximal effect (EC50).

`Cc1ccccc1C1C(CC(F)(F)F)CCC2(C)N(C)C(=O)c3c(O)c(=O)ccn3N12` (single isomer, unassigned) [Compound 87B, 7-hydroxy-4a,5-dimethyl-1-(o-tolyl)-2-(2,2,2-trifluoroethyl)-1,2,3,4,4a,5-hexahydrodipyrido[1,2-b:2′,1′-f][1,2,4]triazine-6,8-dione] yielded an EC50 of 3.6 nM.

Take `CCC1(c2ccccc2)CCCC2N(C)C(=O)c3c(O)c(=O)ccn3N21` (single isomer, unassigned) [Compound 22C, 1-ethyl-7-hydroxy-5-methyl-1-phenyl-1,2,3,4,4a,5-hexahydrodipyrido[1,2-b:2′,1′-f][1,2,4]triazine-6,8-dione]: the EC50 is > 8100 nM.

Take `Cc1ccc(C2(C)CCCC3N(CC(F)(F)F)C(=O)c4c(O)c(=O)ccn4N32)nc1` (single isomer, unassigned) [Compound 49A, 7-hydroxy-1-methyl-1-(5-methylpyridin-2-yl)-5-(2,2,2-trifluoroethyl)-1,2,3,4,4a,5-hexahydrodipyrido[1,2-b:2′,1′-f][1,2,4]triazine-6,8-dione]: the EC50 was > 8100 nM.

As to `COc1c2n(ccc1=O)N1C(c3ccccc3)C(SC(C)C)CCC1N(C)C2=O` (stereo not shown) [Compound 146B, 2-(isopropylthio)-7-methoxy-5-methyl-1-phenyl-1,2,3,4,4a,5-hexahydrodipyrido[1,2-b:2′,1′-f][1,2,4]triazine-6,8-dione], a half-maximal effect (EC50) was put at 237 nM.

Consider `CN1C(=O)c2c(O)c(=O)ccn2N2C1CCCC2(C)c1c(F)cccc1F` (single isomer, unassigned) [Compound 23A, 1-(2,6-difluorophenyl)-7-hydroxy-1,5-dimethyl-1,2,3,4,4a,5-hexahydrodipyrido[1,2-b:2′,1′-f][1,2,4]triazine-6,8-dione], for which the EC50 was > 8100 nM.

As for `O=C1c2c(O)c(=O)ccn2N2C(c3ccccc3)CCCC2N1CC1CC1` (single isomer, unassigned) [Compound 56A, 5-(cyclopropylmethyl)-7-hydroxy-1-phenyl-1,2,3,4,4a,5-hexahydrodipyrido[1,2-b:2′,1′-f][1,2,4]triazine-6,8-dione], the EC50 is > 8100 nM.

As to `Cc1ccccc1C1C(c2ccc(F)c(F)c2)CCC2N(C)C(=O)c3c(O)c(=O)ccn3N12` (single isomer, unassigned) [Compound 91A, 2-(3,4-difluorophenyl)-7-hydroxy-5-methyl-1-(o-tolyl)-1,2,3,4,4a,5-hexahydrodipyrido[1,2-b:2′,1′-f][1,2,4]triazine-6,8-dione], the EC50 was 485 nM. That is a sub-micromolar value.

Take `CN1C(=O)c2c(O)c(=O)ccn2N2C1CCC1(CCCC(F)(F)C1)C2c1ccccc1` (single isomer, unassigned) [Compound 75C, 3,3-difluoro-7′-hydroxy-5′-methyl-1′-phenyl-3′,4′,4a′,5′-tetrahydro-1′H-spiro[cyclohexane-1,2′-dipyrido[1,2-b:2′,1′-f][1,2,4]triazine]-6′,8′-dione]: it took 140 nM to reach a half-maximal effect (EC50).

In turn, `Cc1ccccc1C1N2C(CCC13CCC(F)(F)CC3)N(C)C(=O)c1c(O)c(=O)ccn12` (single isomer, unassigned) [Compound 70B, 4,4-difluoro-7′-hydroxy-5′-methyl-1′-(o-tolyl)-3′,4′,4a′,5′-tetrahydro-1′H-spiro[cyclohexane-1,2′dipyrido[1,2-b:2′,1′-f][1,2,4]triazine]-6′,8′-dione] showed an EC50 of 2 nM.

As for `CN1C(=O)c2c(O)c(=O)ccn2N2C(c3ccccc3C(F)(F)F)CCCC12` (single isomer, unassigned) [Compound 14B, 7-hydroxy-5-methyl-1-(2-(trifluoromethyl)phenyl)-1,2,3,4,4a,5-hexahydrodipyrido[1,2-b:2′,1′-f][1,2,4]triazine-6,8-dione], the EC50 was > 8100 nM.

`CN1C(=O)c2c(O)c(=O)ccn2N2C(c3c(F)cccc3F)C(CC(F)(F)F)CCC12` (single isomer, unassigned) [Compound 123D, 1-(2,6-difluorophenyl)-7-hydroxy-5-methyl-2-(2,2,2-trifluoroethyl)-1,2,3,4,4a,5-hexahydrodipyrido[1,2-b:2′,1′-f][1,2,4] triazine-6,8-dione] registered a 50% effective concentration (EC50) of 26.9 nM.

As for `CC(=O)N(C)[C@H]1CC[C@@H](c2ccccc2)N2[C@@H]1N(C)C(=O)c1c(O)c(=O)ccn12` [Compound 145, N-((1S,4S,4aS)-7-hydroxy-5-methyl-6,8-dioxo-1-phenyl-1,2,3,4,4a,5,6,8-octahydrodipyrido[1,2-b:2′,1′-f][1,2,4]triazin-4-yl)-N-methylacetamide], where the note is “MDCK, 48 h”, the EC50 was > 810 nM.

The compound `Cc1c(F)cccc1C1C(CC(F)(F)F)CCC2N(C)C(=O)c3c(O)c(=O)ccn3N12` (single isomer, unassigned) [Compound 80B, 1-(3-fluoro-2-methylphenyl)-7-hydroxy-5-methyl-2-(2,2,2-trifluoroethyl)-1,2,3,4,4a,5-hexahydrodipyrido[1,2-b:2′,1′-f][1,2,4]triazine-6,8-dione] registered an EC50 of 3.3 nM.

The compound `CN1C(=O)c2c(O)c(=O)ccn2N2C1CCC2(C)c1ccccc1Cl` (single isomer, unassigned) [Compound 63B, 1-(2-chlorophenyl)-6-hydroxy-1,4-dimethyl-2,3,3a,4-tetrahydro-1H-pyrido[2,1-f]pyrrolo[1,2-b][1,2,4]triazine-5,7-dione] yielded an EC50 of 160 nM.

Consider `CN1C(=O)c2c(O)c(=O)ccn2N2[C@H](c3ccccc3)[C@@H](OCCCCC#N)CC[C@@H]12` [Compound 154, 5-(((1R,2S,4aS)-7-hydroxy-5-methyl-6,8-dioxo-1-phenyl-1,2,3,4,4a,5,6,8-octahydrodipyrido[1,2-b:2′,1′-f][1,2,4]triazin-2-yl)oxy)pentanenitrile], for which the EC50 (MDCK, 48 h) is > 810 nM.

Take `CN1C(=O)c2c(O)c(=O)ccn2N2C(c3ccccc3)C(O)CCC12` (stereo not shown) [Compound 136B, 2,7-dihydroxy-5-methyl-1-phenyl-1,2,3,4,4a,5-hexahydrodipyrido[1,2-b:2′,1′-f][1,2,4]triazine-6,8-dione]: the EC50 is > 8100 nM.

Consider `CCN1C(=O)c2c(O)c(=O)ccn2N2C(c3ccccc3Br)C(CC(F)(F)F)CCC12` (single isomer, unassigned) [Compound 106B, 1-(2-bromophenyl)-5-ethyl-7-hydroxy-2-(2,2,2-trifluoroethyl)-1,2,3,4,4a,5-hexahydrodipyrido[1,2-b:2′,1′-f][1,2,4]triazine-6,8-dione], for which the EC50 was 87.8 nM.
